Laboratory results published in patent US12662491B2 (Redona Therapeutics, Inc., priority 2020, dated 2026).
Like-named read-outs stand apart in the source and are kept apart here.

Molecular target: T1, Zcchc11 enzyme (Homo sapiens, UniProt Q5TAX3)
T1 construct: made in house; host or cells: HEK293 cells (Zcchc11); E. coli Rosetta II (LIN28A)
T1 sequence (Q5TAX3 212-1420): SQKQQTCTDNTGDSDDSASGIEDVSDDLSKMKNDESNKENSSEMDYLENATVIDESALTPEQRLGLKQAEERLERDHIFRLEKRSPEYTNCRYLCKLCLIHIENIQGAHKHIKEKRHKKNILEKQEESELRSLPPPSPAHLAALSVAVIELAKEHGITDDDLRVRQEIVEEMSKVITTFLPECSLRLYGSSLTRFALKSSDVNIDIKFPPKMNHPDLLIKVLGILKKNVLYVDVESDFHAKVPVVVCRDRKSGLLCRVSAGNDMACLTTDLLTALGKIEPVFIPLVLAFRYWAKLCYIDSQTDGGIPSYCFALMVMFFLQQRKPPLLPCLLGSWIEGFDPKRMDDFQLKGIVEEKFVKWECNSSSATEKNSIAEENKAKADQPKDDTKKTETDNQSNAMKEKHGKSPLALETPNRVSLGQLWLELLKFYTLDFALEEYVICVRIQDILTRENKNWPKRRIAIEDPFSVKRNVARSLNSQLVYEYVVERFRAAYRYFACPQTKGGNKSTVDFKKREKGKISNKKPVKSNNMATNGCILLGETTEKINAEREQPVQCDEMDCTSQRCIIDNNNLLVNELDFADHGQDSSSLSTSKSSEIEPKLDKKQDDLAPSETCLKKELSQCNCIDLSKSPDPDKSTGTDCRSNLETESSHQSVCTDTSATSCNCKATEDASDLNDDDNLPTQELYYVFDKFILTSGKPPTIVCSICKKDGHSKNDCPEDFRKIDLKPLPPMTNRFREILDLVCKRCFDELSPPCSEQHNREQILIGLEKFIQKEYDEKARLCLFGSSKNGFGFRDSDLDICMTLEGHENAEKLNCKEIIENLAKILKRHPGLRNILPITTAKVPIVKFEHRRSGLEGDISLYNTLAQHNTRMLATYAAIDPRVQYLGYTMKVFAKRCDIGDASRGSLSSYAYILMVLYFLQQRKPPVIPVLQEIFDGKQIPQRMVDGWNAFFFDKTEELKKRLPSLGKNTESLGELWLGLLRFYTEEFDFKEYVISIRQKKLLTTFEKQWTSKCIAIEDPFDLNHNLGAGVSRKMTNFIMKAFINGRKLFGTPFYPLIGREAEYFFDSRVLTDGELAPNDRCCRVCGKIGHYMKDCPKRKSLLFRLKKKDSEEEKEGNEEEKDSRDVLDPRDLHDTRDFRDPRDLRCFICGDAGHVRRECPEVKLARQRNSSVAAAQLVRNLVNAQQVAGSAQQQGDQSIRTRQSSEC
Test: TUTase assay (Zcchc11 assay, Lin28a-dependent polyuridylation of pre-let-7)
Format: biochemical
Settings: read-out: Potency Lin28a-dep Z11 IC50
Protocol: The purpose of the Zcchc11 assay is to determine compound potency against Zcchc11 enzyme through the measurement of IC50. Compound inhibition is measured as a function of polyuridine tails added to RNA substrates in the presence of active TUTase, UTP, and inhibitor. The Zcchc11 assay was done in a black, non-binding, 384 well plate (Corning #3575). All steps were performed at room temperature. For a typical assay, a 29 ul aliquot of assay buffer (50 mM HEPES pH 7.3, 150 mM KCl, 5 mM MgCl2, 10 mM DTT, 0.01% Triton X-100, 40 U/ml RNAsin (Promega)) containing LIN28A protein (final concentration: 10 nM) is added to each well. Next, 1 ul of compound in 100% DMSO is transferred from a compound dilution plate in which the compound is serially diluted. Next, 10 ul of a 5× mix of Zcchc11 and RNA substrate (5′-fluorescein labeled pre-let-7 miRNA (Dharmacon)) is added (final concentrations: 0.2 nM and 2 nM, respectively). The plate is placed on a plate shaker for 30 seconds to produce mixing, then incubated for 30 minutes. Next, 10 ul of a 5× mix of UTP and the quenching probe (3′-rhodamine labeled A20, polyadenosine nucleotide, (IDT)) is added (final concentrations: 5 uM and 4 nM, respectively). The plate is immediately placed in a Biotek Cytation 5 plate reader, and the time-dependent decrease in fluorescein fluorescence resulting from annealing of the A20 probe to polyuridine tails is recorded, using the kinetics mode of the reader. Reaction rates are obtained using linear fits to the early portion of progress curves. IC50 values are calculated using a four parameter fit with 100% enzyme activity determined from the DMSO control and 0% activity from control samples lacking UTP.
The LIN28A protein was expressed in and purified from E. coli, strain Rosetta II (Novagen). The entire coding sequence of the human, wild-type protein was cloned into expression vector pMAL (NEB), down-stream from a maltose-binding protein tag. The linker sequence contained a TEV protease cleavage site. The protein was purified from bacterial extracts using an MBP-Trap column (GE Healthcare Life Sciences), followed by tag cleavage and removal of the tag by ion-exchange chromatography. When necessary, contaminating bacterial RNA was removed using the procedure describe by Faehnle C R. et al. (2017) Multi-domain utilization by TUT4 and TUT7 in control of let-7 biogenesis. Nat Struct Mol Biol, 24:658-665.
The Zcchc11 protein was expressed in and purified from HEK293 cells. A truncated protein comprising residues 212-1420 of the human sequence was cloned into expression vector pTT5 (Viva Biotech) down-stream from a maltose-binding protein tag. The linker sequence contained a TEV protease cleavage site, and a FLAG tag was added to the carboxyl terminus of the protein. The protein was purified from cell extracts using an MBP-Trap column (GE Healthcare Life Sciences), followed by tag cleavage and further enrichment of the full length construct using anti-FLAG affinity media (Sigma Aldrich).
“+” represents an IC50 value that is greater than 50 μM; “++” represents an IC50 value that is greater than 10 μM and equal to or less than 50 μM; “+++” represents an IC50 value that is greater than 1 μM and equal to or less than 10 μM; and “++++” represents an IC50 value that is equal to or less than 1 μM.

[1] = Lin28a-dependent Zcchc11 (Z11) TUTase activity
[2] = Lin28a-dependent Zcchc11 (Z11) TUTase assay

Compound: Cc1cc2c(=O)c(C(=O)O)cn(-c3ccnc(N)c3)c2cc1N1CCC[C@@H]1COc1ncccc1Cl [Compound 297, (R)-1-(2-aminopyridin-4-yl)-7-(2-(((3-chloropyridin-2-yl)oxy)methyl)pyrrolidin-1-yl)-6-methyl-4-oxo-1,4-dihydro-quinoline-3-carboxylic acid]
- IC50 [1]: ≤ 1000 nM

Compound: COc1ccc(Cl)c(OCC2N(c3cc4c(cc3Cl)c(=O)c(C(=O)O)cn4-c3cc(N)cnn3)CCC2(C)C)n1 (stereo not drawn) [Compound 229, 1-(5-Amino-pyridazin-3-yl)-6-chloro-7-(2-(((3-chloro-6-methoxy-pyridin-2-yl)oxy)methyl)-3,3-dimethyl-pyrrolidin-1-yl)-4-oxo-1,4-dihydro-quinoline-3-carboxylic acid]
- IC50 [1]: ≤ 1000 nM

Compound: CN(C)C1CN(c2ccc(-n3cc(C(=O)O)c(=O)c4cc(Cl)c(N5C[C@@H](F)C[C@@H]5COc5ncccc5F)cc43)cn2)C1 [Example 466, 6-chloro-1-(6-(3-(dimethylamino)azetidin-1-yl)pyridin-3-yl)-7-((2R,4S)-4-fluoro-2-(((3-fluoropyridin-2-yl)oxy)methyl)pyrrolidin-1-yl)-4-oxo-1,4-dihydroquinoline-3-carboxylic acid]
- IC50 [2]: ≤ 1000 nM

Compound: O=C(O)c1cn(-c2ccc(N3CC(N4CCC4)C3)nc2)c2cc(N3CCC[C@@H]3COc3ncccc3Cl)c(Cl)cc2c1=O [Example 507, (R)-1-(6-([1,3′-biazetidin]-1′-yl)pyridin-3-yl)-6-chloro-7-(2-(((3-chloropyridin-2-yl)oxy)methyl)pyrrolidin-1-yl)-4-oxo-1,4-dihydroquinoline-3-carboxylic acid]
- IC50 [2]: ≤ 1000 nM

Compound: CN(C)C1CN(c2ccc(-n3cc(C(=O)O)c(=O)c4cc(C#N)c(N5CCC[C@@]5(C)COc5ncccc5F)cc43)cn2)C1 [Compound 285, (S)-6-cyano-1-(6-(3-(dimethyl-amino)azetidin-1-yl)pyridin-3-yl)-7-(2-(((3-fluoropyridin-2-yl)oxy)methyl)-2-methyl-pyrrolidin-1-yl)-4-oxo-1,4-dihydro-quinoline-3-carboxylic acid]
- IC50 [1]: ≤ 1000 nM

Compound: CN(C)C1CN(c2ccc(-n3cc(C(=O)O)c(=O)c4cc(Cl)c(N5CC6(CC6)C[C@@H]5COc5ncccc5Cl)cc43)cn2)C1 [Compound 347, (R)-6-chloro-7-(6-(((3-chloropyridin-2-yl)oxy)methyl)-5-azaspiro[2.4]heptan-5-yl)-1-(6-(3-(dimethyl-amino)azetidin-1-yl)pyridin-3-yl)-4-oxo-1,4-dihydro-quinoline-3-carboxylic acid]
- IC50 [1]: ≤ 1000 nM

Compound: O=C(O)c1cn(Cc2ccccc2)c2cc(N3CCC[C@@H]3COc3ncccc3Cl)c(Cl)cc2c1=O [Example 556, (R)-1-benzyl-6-chloro-7-(2-(((3-chloropyridin-2-yl)oxy)methyl)pyrrolidin-1-yl)-4-oxo-1,4-dihydroquinoline-3-carboxylic acid]
- IC50 [2]: 1000 to 10000 nM

Compound: O=C(O)c1cn(-c2ccc(Cl)c(O)c2)c2cc(N3CCC[C@@H]3COc3ncccc3Cl)ccc2c1=O [Compound 171, (R)-1-(4-chloro-3-hydroxy-phenyl)-7-(2-(((3-chloropyridin-2-yl)oxy)methyl)pyrrolidin-1-yl)-4-oxo-1,4-dihydro-quinoline-3-carboxylic acid]
- IC50 [1]: > 50000 nM

Compound: CN(C)C1CN(c2ccc(-n3cc(C(=O)O)c(=O)c4cc(Cl)c(N5CCC[C@@H]5CSc5ncccc5Cl)cc43)cn2)C1 [Example 596, (R)-6-chloro-7-(2-(((3-chloropyridin-2-yl)thio)methyl)pyrrolidin-1-yl)-1-(6-(3-(dimethylamino)azetidin-1-yl)pyridin-3-yl)-4-oxo-1,4-dihydroquinoline-3-carboxylic acid]
- IC50 [2]: ≤ 1000 nM

Compound: COc1ccc(F)c(OC[C@H]2C[C@H]3C[C@H]3N2c2cc3c(cc2F)c(=O)c(C(=O)O)cn3-c2ccc(N(C)C)nc2)n1 [Compound 268, 1-(6-(dimethyl-amino)pyridin-3-yl)-6-fluoro-7-((1R,3R,5R)-3-(((3-fluoro-6-methoxy-pyridin-2-yl)oxy)methyl)-2-azabicyclo [3.1.0]hexan-2-yl)-4-oxo-1,4-dihydro-quinoline-3-carboxylic acid]
- IC50 [1]: ≤ 1000 nM

Compound: Cc1cc2c(=O)c(C(=O)O)cn(-c3cnccn3)c2cc1N1CCC[C@@H]1COc1ncccc1Cl [Example 487, (R)-7-(2-(((3-chloropyridin-2-yl)oxy)methyl)pyrrolidin-1-yl)-6-methyl-4-oxo-1-(pyrazin-2-yl)-1,4-dihydroquinoline-3-carboxylic acid]
- IC50 [2]: ≤ 1000 nM

Compound: Cc1cccnc1OC[C@H]1CCCN1c1cc2c(cc1F)c(=O)c(C(=O)O)cn2-c1cnn(C)c1 [Compound 291, (R)-6-fluoro-1-(1-methyl-1H-pyrazol-4-yl)-7-(2-(((3-methylpyridin-2-yl)oxy)methyl)pyrrolidin-1-yl)-4-oxo-1,4-dihydro-quinoline-3-carboxylic acid]
- IC50 [1]: ≤ 1000 nM

Compound: COc1ccc(C)c(OC[C@H]2C[C@H]3C[C@H]3N2c2cc3c(cc2F)c(=O)c(C(=O)O)cn3-c2ccc(N3CC(N(C)C)C3)nc2)n1 [Example 682, 1-(6-(3-(dimethylamino)azetidin-1-yl)pyridin-3-yl)-6-fluoro-7-((1R,3R, 5R)-3-(((6-methoxy-3-methylpyridin-2-yl)oxy)methyl)-2-azabicyclo[3.1.0]hexan-2-yl)-4-oxo-1,4-dihydroquinoline-3-carboxylic acid]
- IC50 [2]: ≤ 1000 nM

Compound: CN(C)C1CN(c2ccc(-n3cc(C(=O)O)c(=O)c4cc(Cl)c(N5CCC[C@@]5(C)COc5ncccc5Cl)cc43)cn2)C1 [Example 609, (S)-6-chloro-7-(2-(((3-chloropyridin-2-yl)oxy)methyl)-2-methylpyrrolidin-1-yl)-1-(6-(3-(dimethylamino)azetidin-1-yl)pyridin-3-yl)-4-oxo-1,4-dihydroquinoline-3-carboxylic acid]
- IC50 [2]: ≤ 1000 nM

Compound: O=C(O)c1cn(-c2ccccc2)c2cc(N3CCC[C@@H]3COc3ccccn3)c(F)cc2c1=O [Compound 85, (R)-6-fluoro-4-oxo-1-phenyl-7-(2-((pyridin-2-yloxy)methyl)pyrrolidin-1-yl)-1,4-dihydro-quinoline-3-carboxylic acid]
- IC50 [1]: ≤ 1000 nM
